Source: patent US5273978A, “Optically active isoindoline derivatives, their production and use” (Takeda Chemical Industries, Ltd., priority 1991, dated 1993)
Where two headings read alike, the source gives them in different places.

What was measured:
Male rats (SD/JCL) = assay: Antianxiety action (Vogel method, anticonflict water drinking test in rats); format: in vivo, rat (SD/JCL); settings: for minimal effective dose: Rattus norvegicus, rats; for antianxiety action stronger than that of the corresponding racemic modification: from MED values of Table 2
benzodiazepine receptor = assay: Inhibition of [3H]diazepam binding to benzodiazepine receptor (crude mitochondrial fraction of rat cerebral cortex); parameters: species or system male SD rats; settings: in words
Protocol: The affinity of the compound of the present invention to a benzodiazepine receptor was investigated using radioactive [^3 H] diazepam.
Capability of specific binding to a benzodiazepin receptor was determined in accordance with the method described in the literature (Nature, 266, 732 (1977); European J. Pharmacol., 48, 263 (1978). Specifically, a crude mitochondrial fraction obtained from the cerebral cortex of male SD rats at 9 to 10 weeks of age was suspended in 50 mM Tris-HCL buffer (pH 7.4), and incubated, together with several concentrations of the subject drug and ^3 H-diazepam (final concentration 2 nM), at 4° C. for 20 minutes. This suspension was then filtered through a Whatman GF/B glass fiber filter, and the ^3 H-diazepam radioactivity on the filter was measured using a liquid scintillation counter. The concentration of the subject drug at which ^3 H-diazepam binding was inhibited by 50% was taken as the IC50 value.
Results from a typical compounds (VI) and (VIII) of the present invention and the corresponding racemic modifications thereof are shown in Table 1.

[1] = po, 0.5 h, p.o., 30 minutes after dosing, water drinking frequency in 3 minutes, read-out: Minimum Effective Dose (MED), antianxiety action (Vogel method)
[2] = ip, 0.05 h, i.p., water drinking frequency in 3 minutes, read-out: Minimum Effective Dose (MED), antianxiety action (Vogel method)

SMILES | minimal effective dose (Male rats (SD/JCL); po, 0.5 h, P.O., read-out: MED for antianxiety action in rats) [mg/kg] | minimal effective dose (Male rats (SD/JCL); [1]) [mg/kg] | antianxiety action stronger than that of the corresponding racemic modification (Male rats (SD/JCL)) [times] | affinity to the benzodiazepin receptor versus racemic modification (benzodiazepine receptor) | minimal effective dose (Male rats (SD/JCL); [2]) [mg/kg]
O=C(C[C@H]1c2ccccc2C(=O)N1c1ccc2ccc(Cl)nc2n1)N1CCC2(CC1)OCCO2 [(VI), (S)-(+)-2-(7-chloro-1,8-naphthylidin-2yl)-3-[(1,4-dioxa-8-azaspiro[4.5]dec-8-yl)carbonylmethyl]isoindolin-1-one] | ≤ 1.25 | 1.25 | 8 | no enhanced affinity | –
O=C(C[C@H]1c2ccccc2C(=O)N1c1ccc2ccc(Cl)nc2n1)N1CCC(O)CC1 [(VIII), (S)-(+)-2-(7-chloro-1,8-naphthylidin-2-yl)-3-[(4-hydroxypiperidin-1-yl)carbonylmethyl]isoindolin-1-one] | – | – | 4 | – | 5
O=C(CC1c2ccccc2C(=O)N1c1ccc2ccc(Cl)nc2n1)N1CCC2(CC1)OCCO2 (racemic) [Racemic modification of (VI), reference compound] | – | 10 | – | nearly fully potent action | –
O=C(CC1c2ccccc2C(=O)N1c1ccc2ccc(Cl)nc2n1)N1CCC(O)CC1 (racemic) [Racemic modification of (VIII), reference compound] | – | – | – | – | 20
